Key:
Aurora-A = molecular target: T1, Aurora-A (Homo sapiens, UniProt O14965); experiment: Eurofins Kinase Profiler panel; assay type: biochemical
T1 construct: Eurofins Pharma Discovery Services UK Limited (Kinase Profiler service)

MKK6 = molecular target: T2, MKK6 (Homo sapiens, UniProt P52564); experiment: Eurofins Kinase Profiler panel; assay type: biochemical; details: read-out: % inhibition (1μM), DMSO control=100%, lower=stronger
T2 construct: Eurofins Pharma Discovery Services UK Limited (Kinase Profiler service)

Lck = molecular target: T3, Lck (Homo sapiens, UniProt P06239); experiment: Eurofins Kinase Profiler panel; assay type: biochemical; details: read-out: % inhibition (1μM), DMSO control=100%, lower=stronger
T3 construct: purchased Eurofins KinaseProfiler (Eurofins Pharma Discovery Services UK, Dundee); JAK3 also ChemPartner

Fms = molecular target: T4, Fms (Homo sapiens, UniProt P07333); experiment: Eurofins Kinase Profiler panel; assay type: biochemical; details: read-out: % inhibition (1μM), DMSO control=100%, lower=stronger
T4 construct: purchased Eurofins Pharma Discovery Services UK Limited (Kinase Profiler screening platform)

CaMKIIβ = molecular target: T5, CaMKIIβ (Homo sapiens, UniProt Q13554); experiment: Eurofins Kinase Profiler panel; assay type: biochemical; details: read-out: % inhibition (1μM), DMSO control=100%, lower=stronger
T5 construct: purchased Eurofins KinaseProfiler (Eurofins Pharma Discovery Services UK, Dundee); JAK3 also ChemPartner
Source text: (§1) The assay protocol guides are commercially available from ChemPartner.

CLK2 = molecular target: T6, CLK2 (Homo sapiens, UniProt P49760); experiment: Eurofins Kinase Profiler panel; assay type: biochemical
T6 construct: Eurofins Pharma Discovery Services UK Limited (Kinase Profiler service)
Source text: as §1

SAPK3 = molecular target: T7, SAPK3 (Homo sapiens, UniProt P53778); experiment: Eurofins Kinase Profiler panel; assay type: biochemical; details: read-out: % inhibition (1μM), DMSO control=100%, lower=stronger
T7 construct: purchased Eurofins KinaseProfiler (Eurofins Pharma Discovery Services UK, Dundee); JAK3 also ChemPartner
Source text: as §1

PDGFRα = molecular target: T8, PDGFRα (Homo sapiens, UniProt P16234); experiment: Eurofins Kinase Profiler panel; assay type: biochemical; details: read-out: % inhibition (1μM), DMSO control=100%, lower=stronger
T8 construct: purchased Eurofins Pharma Discovery Services UK Limited (Kinase Profiler screening platform)
Source text: as §1

PKG1α = molecular target: T9, PKG1α (Homo sapiens, UniProt Q13976); experiment: Eurofins Kinase Profiler panel; assay type: biochemical
T9 construct: Eurofins Pharma Discovery Services UK Limited (Kinase Profiler service)
Source text: as §1

PKCθ = molecular target: T10, PKCθ (Homo sapiens, UniProt Q04759); experiment: Eurofins Kinase Profiler panel; assay type: biochemical; details: read-out: % inhibition (1μM), DMSO control=100%, lower=stronger
T10 construct: purchased Eurofins KinaseProfiler (Eurofins Pharma Discovery Services UK, Dundee); JAK3 also ChemPartner
Source text: as §1

ROCK-II = molecular target: T11, ROCK-II (Homo sapiens, UniProt O75116); experiment: Eurofins Kinase Profiler panel; assay type: biochemical; details: read-out: % inhibition (1μM), DMSO control=100%, lower=stronger
T11 construct: purchased Eurofins KinaseProfiler (Eurofins Pharma Discovery Services UK, Dundee); JAK3 also ChemPartner
Source text: as §1

DYRK1A = molecular target: T12, DYRK1A (Homo sapiens, UniProt Q13627); experiment: Eurofins Kinase Profiler panel; assay type: biochemical; details: read-out: % inhibition (1μM), DMSO control=100%, lower=stronger
T12 construct: purchased Eurofins KinaseProfiler (Eurofins Pharma Discovery Services UK, Dundee); JAK3 also ChemPartner
Source text: as §1

Rsk2 = molecular target: T13, Rsk2 (Homo sapiens, UniProt P51812); experiment: Eurofins Kinase Profiler panel; assay type: biochemical; details: read-out: % inhibition (1μM), DMSO control=100%, lower=stronger
T13 construct: purchased Eurofins KinaseProfiler (Eurofins Pharma Discovery Services UK, Dundee); JAK3 also ChemPartner
Source text: as §1

Pim-2 = molecular target: T14, Pim-2 (Homo sapiens, UniProt Q9P1W9); experiment: Eurofins Kinase Profiler panel; assay type: biochemical; details: read-out: % inhibition (1μM), DMSO control=100%, lower=stronger
T14 construct: purchased Eurofins KinaseProfiler (Eurofins Pharma Discovery Services UK, Dundee); JAK3 also ChemPartner
Source text: as §1

CaMKI = molecular target: T15, CaMKI (Homo sapiens, UniProt Q14012); experiment: Eurofins Kinase Profiler panel; assay type: biochemical; details: read-out: % inhibition (1μM), DMSO control=100%, lower=stronger
T15 construct: purchased Eurofins KinaseProfiler (Eurofins Pharma Discovery Services UK, Dundee); JAK3 also ChemPartner
Source text: as §1

TrkC = molecular target: T16, TrkC (Homo sapiens, UniProt Q16288); experiment: Eurofins Kinase Profiler panel; assay type: biochemical; details: read-out: % inhibition (1μM), DMSO control=100%, lower=stronger
T16 construct: purchased Eurofins Pharma Discovery Services UK Limited (Kinase Profiler screening platform)
Source text: as §1

SAPK2b = molecular target: T17, SAPK2b (Homo sapiens, UniProt Q15759); experiment: Eurofins Kinase Profiler panel; assay type: biochemical; details: read-out: % inhibition (1μM), DMSO control=100%, lower=stronger
T17 construct: purchased Eurofins KinaseProfiler (Eurofins Pharma Discovery Services UK, Dundee); JAK3 also ChemPartner
Source text: as §1

DDR1 = molecular target: T18, DDR1 (Homo sapiens, UniProt Q08345); experiment: Eurofins Kinase Profiler panel; assay type: biochemical; details: read-out: % inhibition (1μM), DMSO control=100%, lower=stronger
T18 construct: purchased Eurofins KinaseProfiler (Eurofins Pharma Discovery Services UK, Dundee); JAK3 also ChemPartner
Source text: as §1

Syk = molecular target: T19, Syk (Homo sapiens, UniProt P43405); experiment: Eurofins Kinase Profiler panel; assay type: biochemical; details: read-out: % inhibition (1μM), DMSO control=100%, lower=stronger
T19 construct: Eurofins Pharma Discovery Services UK Limited (Kinase Profiler service)
Source text: as §1

TrkB = molecular target: T20, TrkB (Homo sapiens, UniProt Q16620); experiment: Eurofins Kinase Profiler panel; assay type: biochemical; details: read-out: % inhibition (1μM), DMSO control=100%, lower=stronger
T20 construct: purchased Eurofins Pharma Discovery Services UK Limited (Kinase Profiler screening platform)
Source text: as §1

CDK9 = molecular target: T21, CDK9 (Homo sapiens, UniProt P50750); experiment: Eurofins Kinase Profiler panel; assay type: biochemical; details: read-out: % inhibition (1μM), DMSO control=100%, lower=stronger
T21 construct: purchased Eurofins KinaseProfiler (Eurofins Pharma Discovery Services UK, Dundee); JAK3 also ChemPartner
Source text: as §1

CDK6 = molecular target: T22, CDK6 (Homo sapiens, UniProt Q00534); experiment: Eurofins Kinase Profiler panel; assay type: biochemical; details: read-out: % inhibition (1μM), DMSO control=100%, lower=stronger
T22 construct: purchased Eurofins KinaseProfiler (Eurofins Pharma Discovery Services UK, Dundee); JAK3 also ChemPartner
Source text: as §1

SAPK2a = molecular target: T23, SAPK2a (Homo sapiens, UniProt Q16539); experiment: Eurofins Kinase Profiler panel; assay type: biochemical; details: read-out: % inhibition (1μM), DMSO control=100%, lower=stronger
T23 construct: purchased Eurofins KinaseProfiler (Eurofins Pharma Discovery Services UK, Dundee); JAK3 also ChemPartner
Source text: as §1

PKBα = molecular target: T24, PKBα (Homo sapiens, UniProt P31749); experiment: Eurofins Kinase Profiler panel; assay type: biochemical; details: read-out: % inhibition (1μM), DMSO control=100%, lower=stronger
T24 construct: purchased Eurofins KinaseProfiler (Eurofins Pharma Discovery Services UK, Dundee); JAK3 also ChemPartner
Source text: as §1

Mer = molecular target: T25, Mer (Homo sapiens, UniProt Q12866); experiment: Eurofins Kinase Profiler panel; assay type: biochemical; details: read-out: % inhibition (1μM), DMSO control=100%, lower=stronger
T25 construct: purchased Eurofins KinaseProfiler (Eurofins Pharma Discovery Services UK, Dundee); JAK3 also ChemPartner
Source text: as §1

STK33 = molecular target: T26, STK33 (Homo sapiens, UniProt Q9BYT3); experiment: Eurofins Kinase Profiler panel; assay type: biochemical; details: read-out: % inhibition (1μM), DMSO control=100%, lower=stronger
T26 construct: purchased Eurofins KinaseProfiler (Eurofins Pharma Discovery Services UK, Dundee); JAK3 also ChemPartner
Source text: as §1

Plk3 = molecular target: T27, Plk3 (Homo sapiens, UniProt Q9H4B4); experiment: Eurofins Kinase Profiler panel; assay type: biochemical; details: read-out: % inhibition (1μM), DMSO control=100%, lower=stronger
T27 construct: purchased Eurofins KinaseProfiler (Eurofins Pharma Discovery Services UK, Dundee); JAK3 also ChemPartner
Source text: as §1

PKCζ = molecular target: T28, PKCζ (Homo sapiens, UniProt Q05513); experiment: Eurofins Kinase Profiler panel; assay type: biochemical; details: read-out: % inhibition (1μM), DMSO control=100%, lower=stronger
T28 construct: purchased Eurofins KinaseProfiler (Eurofins Pharma Discovery Services UK, Dundee); JAK3 also ChemPartner
Source text: as §1

TBK1 = molecular target: T29, TBK1 (Homo sapiens, UniProt Q9UHD2); experiment: Eurofins Kinase Profiler panel; assay type: biochemical; details: read-out: % inhibition (1μM), DMSO control=100%, lower=stronger
T29 construct: purchased Eurofins Pharma Discovery Services UK Limited (Kinase Profiler screening platform)
Source text: as §1

PKA = molecular target: T30, PKA (Homo sapiens, UniProt P17612); experiment: Eurofins Kinase Profiler panel; assay type: biochemical; details: read-out: % inhibition (1μM), DMSO control=100%, lower=stronger
T30 construct: purchased Eurofins KinaseProfiler (Eurofins Pharma Discovery Services UK, Dundee); JAK3 also ChemPartner
Source text: as §1

Flt1 = molecular target: T31, Flt1 (Homo sapiens, UniProt P17948); experiment: Eurofins Kinase Profiler panel; assay type: biochemical; details: read-out: % inhibition (1μM), DMSO control=100%, lower=stronger
T31 construct: purchased Eurofins Pharma Discovery Services UK Limited (Kinase Profiler screening platform)
Source text: as §1

CDK7 = molecular target: T32, CDK7 (Homo sapiens, UniProt P50613); experiment: Eurofins Kinase Profiler panel; assay type: biochemical; details: read-out: % inhibition (1μM), DMSO control=100%, lower=stronger
T32 construct: purchased Eurofins KinaseProfiler (Eurofins Pharma Discovery Services UK, Dundee); JAK3 also ChemPartner
Source text: as §1

SGK = molecular target: T33, SGK (Homo sapiens, UniProt O00141); experiment: Eurofins Kinase Profiler panel; assay type: biochemical; details: read-out: % inhibition (1μM), DMSO control=100%, lower=stronger
T33 construct: purchased Eurofins KinaseProfiler (Eurofins Pharma Discovery Services UK, Dundee); JAK3 also ChemPartner
Source text: as §1

JAK3 (Cys909) = JAK3 (Cys909) (Homo sapiens, UniProt P52333); experiment: LC-MS/MS mapping of covalent modification; assay type: binding; details: LC-MS/MS after incubation of JAK3 with compound
Description: […]. Then, trypsin was added at a 1:50 trypsin-to-protein mass ratio for the first digestion overnight and a 1:100 trypsin-to-protein mass ratio for a second 4-h digestion. The digested peptides were dried with a SpeedVac (Thermo) for LC-MS/MS analysis.
Peptides were dissolved in solvent A (0.1% FA in 2% ACN) and directly loaded onto a reversed-phase pre-column (Acclaim PepMap 100, Thermo Scientific). […] The resulting peptides were analysed by Q Exactive^TM Plus hybrid Quadrupole-Orbitrap Mass Spectrometer (ThermoFisher Scientific).
The peptides were subjected to NSI source followed by tandem mass spectrometry (MS/MS) in Q Exactive^TM Plus (Thermo) coupled online to the UPLC. Intact peptides were detected in the Orbitrap at a resolution of 70,000. Peptides were selected for MS/MS using 30% NCE; ion fragments were detected in the Orbitrap at a resolution of 17,500. A data-dependent procedure that alternated between one MS scan followed by […] was applied for the top 20 precursor ions above a threshold ion count of 5000 in the MS survey scan with 5.0 s dynamic exclusion. The electrospray voltage applied was 2.0 kV. Automatic gain control (AGC) was used to prevent overfilling of the ion trap; 5 E4 ions were accumulated for generation of MS/MS spectra. For MS scans, the m/z scan range was 350 to 1800.

[1] = read-out: % inhibition (1μM), 1 µM, DMSO control=100%, lower=stronger

T9 sequence (Q13976 whole entry): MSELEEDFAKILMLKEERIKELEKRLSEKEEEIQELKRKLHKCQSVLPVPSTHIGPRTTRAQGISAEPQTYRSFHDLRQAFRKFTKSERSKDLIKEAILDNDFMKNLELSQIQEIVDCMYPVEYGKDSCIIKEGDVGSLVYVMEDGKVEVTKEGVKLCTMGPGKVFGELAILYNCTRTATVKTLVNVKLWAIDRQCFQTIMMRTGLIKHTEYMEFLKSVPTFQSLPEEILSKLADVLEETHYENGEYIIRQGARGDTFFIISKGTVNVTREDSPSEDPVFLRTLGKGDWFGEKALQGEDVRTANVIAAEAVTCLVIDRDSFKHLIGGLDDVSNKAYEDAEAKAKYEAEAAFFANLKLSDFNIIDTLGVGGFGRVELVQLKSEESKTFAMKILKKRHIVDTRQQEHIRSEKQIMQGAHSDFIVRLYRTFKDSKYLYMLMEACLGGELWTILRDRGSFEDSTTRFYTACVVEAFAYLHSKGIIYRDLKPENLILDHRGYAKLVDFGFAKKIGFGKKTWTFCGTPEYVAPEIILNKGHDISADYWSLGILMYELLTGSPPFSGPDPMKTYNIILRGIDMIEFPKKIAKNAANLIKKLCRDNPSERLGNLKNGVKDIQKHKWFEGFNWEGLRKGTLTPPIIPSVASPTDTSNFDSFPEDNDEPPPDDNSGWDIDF
T1 sequence (O14965 whole entry): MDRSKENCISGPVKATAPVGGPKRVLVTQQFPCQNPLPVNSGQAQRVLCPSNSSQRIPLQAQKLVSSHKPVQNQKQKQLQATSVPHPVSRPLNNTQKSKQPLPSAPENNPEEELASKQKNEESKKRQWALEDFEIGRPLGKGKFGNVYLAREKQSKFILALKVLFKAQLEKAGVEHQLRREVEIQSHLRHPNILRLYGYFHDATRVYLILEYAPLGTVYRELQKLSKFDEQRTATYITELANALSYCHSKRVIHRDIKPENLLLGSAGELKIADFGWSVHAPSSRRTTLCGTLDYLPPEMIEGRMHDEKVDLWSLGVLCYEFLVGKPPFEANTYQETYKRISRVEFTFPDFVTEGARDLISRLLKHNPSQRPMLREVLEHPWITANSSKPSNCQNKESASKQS
T6 sequence (P49760 whole entry): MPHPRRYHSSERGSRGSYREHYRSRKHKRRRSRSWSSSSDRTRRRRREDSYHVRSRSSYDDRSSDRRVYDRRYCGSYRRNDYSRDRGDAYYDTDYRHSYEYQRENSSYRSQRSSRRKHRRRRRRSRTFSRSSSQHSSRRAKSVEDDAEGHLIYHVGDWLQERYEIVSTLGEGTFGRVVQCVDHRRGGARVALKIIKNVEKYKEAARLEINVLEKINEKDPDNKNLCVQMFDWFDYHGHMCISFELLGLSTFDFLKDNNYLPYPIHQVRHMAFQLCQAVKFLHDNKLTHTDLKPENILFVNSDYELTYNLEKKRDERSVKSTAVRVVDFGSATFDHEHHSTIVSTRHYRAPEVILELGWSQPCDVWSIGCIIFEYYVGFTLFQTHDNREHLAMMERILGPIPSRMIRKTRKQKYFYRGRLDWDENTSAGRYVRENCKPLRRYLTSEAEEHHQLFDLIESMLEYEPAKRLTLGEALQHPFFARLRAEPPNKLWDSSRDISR
T8 sequence (P16234 24-1089): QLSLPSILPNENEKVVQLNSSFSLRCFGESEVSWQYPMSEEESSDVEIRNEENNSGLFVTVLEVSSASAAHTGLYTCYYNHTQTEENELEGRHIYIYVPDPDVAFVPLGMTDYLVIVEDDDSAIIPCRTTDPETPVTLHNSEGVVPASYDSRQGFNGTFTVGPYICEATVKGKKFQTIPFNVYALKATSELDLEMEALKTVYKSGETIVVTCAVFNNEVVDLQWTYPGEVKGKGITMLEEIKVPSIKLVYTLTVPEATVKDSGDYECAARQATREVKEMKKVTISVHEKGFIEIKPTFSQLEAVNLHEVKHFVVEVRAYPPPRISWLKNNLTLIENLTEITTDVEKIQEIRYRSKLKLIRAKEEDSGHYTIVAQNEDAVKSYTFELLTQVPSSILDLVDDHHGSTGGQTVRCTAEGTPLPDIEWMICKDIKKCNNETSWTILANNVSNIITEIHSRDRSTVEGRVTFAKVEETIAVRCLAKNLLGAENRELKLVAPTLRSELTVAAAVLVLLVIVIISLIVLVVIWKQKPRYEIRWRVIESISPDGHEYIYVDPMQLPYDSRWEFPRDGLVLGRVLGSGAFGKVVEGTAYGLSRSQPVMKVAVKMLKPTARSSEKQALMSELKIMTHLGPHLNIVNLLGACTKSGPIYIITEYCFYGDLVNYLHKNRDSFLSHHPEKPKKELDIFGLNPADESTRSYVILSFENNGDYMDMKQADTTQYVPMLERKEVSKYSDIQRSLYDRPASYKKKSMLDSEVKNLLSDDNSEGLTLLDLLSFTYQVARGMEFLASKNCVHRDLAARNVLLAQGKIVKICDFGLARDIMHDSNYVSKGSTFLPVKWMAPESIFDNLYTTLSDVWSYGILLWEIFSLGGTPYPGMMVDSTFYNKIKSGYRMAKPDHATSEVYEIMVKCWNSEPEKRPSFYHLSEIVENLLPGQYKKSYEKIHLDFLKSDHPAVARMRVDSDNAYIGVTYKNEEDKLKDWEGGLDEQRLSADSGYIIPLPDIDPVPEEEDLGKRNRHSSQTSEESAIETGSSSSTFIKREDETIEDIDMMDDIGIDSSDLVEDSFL
T23 sequence (Q16539 whole entry): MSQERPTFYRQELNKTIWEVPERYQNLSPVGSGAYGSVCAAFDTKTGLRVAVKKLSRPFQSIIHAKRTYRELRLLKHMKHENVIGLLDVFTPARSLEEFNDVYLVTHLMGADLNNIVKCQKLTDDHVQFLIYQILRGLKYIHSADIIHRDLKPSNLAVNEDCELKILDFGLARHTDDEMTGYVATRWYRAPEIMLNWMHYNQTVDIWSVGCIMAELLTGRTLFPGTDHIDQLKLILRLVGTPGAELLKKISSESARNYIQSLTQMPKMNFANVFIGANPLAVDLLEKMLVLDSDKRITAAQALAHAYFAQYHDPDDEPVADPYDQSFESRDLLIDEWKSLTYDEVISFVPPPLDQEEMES
T18 sequence (Q08345 19-913): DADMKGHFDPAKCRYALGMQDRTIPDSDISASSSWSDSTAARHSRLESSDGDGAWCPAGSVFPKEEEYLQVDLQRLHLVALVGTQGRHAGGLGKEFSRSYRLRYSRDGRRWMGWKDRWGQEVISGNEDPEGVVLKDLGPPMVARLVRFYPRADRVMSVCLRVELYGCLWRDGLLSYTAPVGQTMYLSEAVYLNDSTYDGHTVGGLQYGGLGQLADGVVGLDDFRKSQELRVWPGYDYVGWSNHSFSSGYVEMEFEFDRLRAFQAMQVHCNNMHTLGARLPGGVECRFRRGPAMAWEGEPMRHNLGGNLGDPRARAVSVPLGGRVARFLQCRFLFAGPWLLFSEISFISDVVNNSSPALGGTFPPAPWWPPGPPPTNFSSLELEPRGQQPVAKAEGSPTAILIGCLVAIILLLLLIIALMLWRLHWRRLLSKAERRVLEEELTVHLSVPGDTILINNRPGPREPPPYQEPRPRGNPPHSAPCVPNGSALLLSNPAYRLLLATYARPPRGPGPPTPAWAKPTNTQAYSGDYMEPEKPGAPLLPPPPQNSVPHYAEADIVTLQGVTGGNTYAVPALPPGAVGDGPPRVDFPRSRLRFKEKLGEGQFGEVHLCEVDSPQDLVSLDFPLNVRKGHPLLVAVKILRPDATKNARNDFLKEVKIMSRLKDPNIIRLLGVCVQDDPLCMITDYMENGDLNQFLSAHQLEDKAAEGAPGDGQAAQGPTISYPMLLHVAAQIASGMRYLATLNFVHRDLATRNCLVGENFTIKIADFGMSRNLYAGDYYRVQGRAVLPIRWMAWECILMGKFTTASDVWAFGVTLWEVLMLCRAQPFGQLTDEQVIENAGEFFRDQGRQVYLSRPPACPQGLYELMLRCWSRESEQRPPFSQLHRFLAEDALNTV
T24 sequence (P31749 whole entry): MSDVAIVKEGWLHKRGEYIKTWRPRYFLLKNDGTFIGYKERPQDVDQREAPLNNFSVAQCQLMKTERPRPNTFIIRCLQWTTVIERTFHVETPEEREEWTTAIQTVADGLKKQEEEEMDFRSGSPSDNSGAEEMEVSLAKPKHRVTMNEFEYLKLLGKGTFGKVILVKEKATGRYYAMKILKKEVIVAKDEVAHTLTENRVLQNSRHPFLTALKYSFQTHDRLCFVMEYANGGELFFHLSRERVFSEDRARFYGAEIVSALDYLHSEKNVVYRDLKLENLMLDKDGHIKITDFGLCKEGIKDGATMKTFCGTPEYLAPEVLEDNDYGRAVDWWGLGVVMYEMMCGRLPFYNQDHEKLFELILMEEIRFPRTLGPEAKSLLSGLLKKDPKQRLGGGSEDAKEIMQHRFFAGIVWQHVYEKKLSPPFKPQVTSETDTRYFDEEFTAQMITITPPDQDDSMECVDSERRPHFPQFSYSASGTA
T17 sequence (Q15759 whole entry): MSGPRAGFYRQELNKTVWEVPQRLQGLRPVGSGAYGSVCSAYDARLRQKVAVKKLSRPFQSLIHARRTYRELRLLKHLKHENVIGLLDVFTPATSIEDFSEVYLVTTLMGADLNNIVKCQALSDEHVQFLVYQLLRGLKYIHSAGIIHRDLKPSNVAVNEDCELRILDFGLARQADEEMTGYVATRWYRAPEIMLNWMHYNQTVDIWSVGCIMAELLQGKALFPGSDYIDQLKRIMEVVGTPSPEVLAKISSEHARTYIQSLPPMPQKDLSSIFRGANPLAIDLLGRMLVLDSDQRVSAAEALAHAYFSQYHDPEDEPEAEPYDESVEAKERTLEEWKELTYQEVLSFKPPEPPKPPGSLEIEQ

C=CC(=O)N[C@@H]1CCCN(c2ncnc3[nH]ccc23)C1 [RB1]
IC50 (Aurora-A; estimated): > 800 nM
activity at 1 µM (Aurora-A; [1]): 21%
activity at 1 µM (MKK6): 69%
activity at 1 µM (Lck): 80%
activity at 1 µM (Fms): 90%
activity at 1 µM (CaMKIIβ): 85%
IC50 (CLK2; estimated): > 800 nM
activity at 1 µM (CLK2; [1]): 18%
activity at 1 µM (SAPK3): 94%
activity at 1 µM (PDGFRα): 96%
IC50 (PKG1α; estimated): > 800 nM
activity at 1 µM (PKG1α; [1]): 23%
activity at 1 µM (PKCθ): 80%
activity at 1 µM (ROCK-II): 88%
activity at 1 µM (DYRK1A): 91%
activity at 1 µM (Rsk2): 76%
activity at 1 µM (Pim-2): 98%
activity at 1 µM (CaMKI): 96%
activity at 1 µM (TrkC): 75%
activity at 1 µM (SAPK2b): 103%
activity at 1 µM (DDR1): 75%
activity at 1 µM (Syk): 104%
activity at 1 µM (TrkB): 38%
activity at 1 µM (CDK9): 101%
activity at 1 µM (CDK6): 100%
activity at 1 µM (SAPK2a): 100%
activity at 1 µM (PKBα): 94%
activity at 1 µM (Mer): 68%
activity at 1 µM (STK33): 93%
activity at 1 µM (Plk3): 99%
activity at 1 µM (PKCζ): 106%
activity at 1 µM (TBK1): 96%
activity at 1 µM (PKA): 85%
activity at 1 µM (Flt1): 93%
activity at 1 µM (CDK7): 95%
activity at 1 µM (SGK): 92%
covalent modification of JAK3 (Cys909-containing peptide) (JAK3 (Cys909)): covalently modify JAK3 in an apparently irreversible manner
